Substitutions are numbered along the chain they refer to. “Also recorded” adds a separate entry of the source.
Assays:
[1] = set-up: method as in PMID 354839; settings: chlorthalidone dose 2- to 4-fold over the currently recommended level; cited from earlier work
hNCC(H234N) = target: T1, hNCC(H234N) (Homo sapiens, UniProt P55017, H234N); experiment: 125I- uptake assay, hNCC(H234N) variant; assay type: cell-based; settings: 100 μM polythiazide
T1 construct: expressed in transfected cells
T1 sequence (P55017 1-1021 H234N): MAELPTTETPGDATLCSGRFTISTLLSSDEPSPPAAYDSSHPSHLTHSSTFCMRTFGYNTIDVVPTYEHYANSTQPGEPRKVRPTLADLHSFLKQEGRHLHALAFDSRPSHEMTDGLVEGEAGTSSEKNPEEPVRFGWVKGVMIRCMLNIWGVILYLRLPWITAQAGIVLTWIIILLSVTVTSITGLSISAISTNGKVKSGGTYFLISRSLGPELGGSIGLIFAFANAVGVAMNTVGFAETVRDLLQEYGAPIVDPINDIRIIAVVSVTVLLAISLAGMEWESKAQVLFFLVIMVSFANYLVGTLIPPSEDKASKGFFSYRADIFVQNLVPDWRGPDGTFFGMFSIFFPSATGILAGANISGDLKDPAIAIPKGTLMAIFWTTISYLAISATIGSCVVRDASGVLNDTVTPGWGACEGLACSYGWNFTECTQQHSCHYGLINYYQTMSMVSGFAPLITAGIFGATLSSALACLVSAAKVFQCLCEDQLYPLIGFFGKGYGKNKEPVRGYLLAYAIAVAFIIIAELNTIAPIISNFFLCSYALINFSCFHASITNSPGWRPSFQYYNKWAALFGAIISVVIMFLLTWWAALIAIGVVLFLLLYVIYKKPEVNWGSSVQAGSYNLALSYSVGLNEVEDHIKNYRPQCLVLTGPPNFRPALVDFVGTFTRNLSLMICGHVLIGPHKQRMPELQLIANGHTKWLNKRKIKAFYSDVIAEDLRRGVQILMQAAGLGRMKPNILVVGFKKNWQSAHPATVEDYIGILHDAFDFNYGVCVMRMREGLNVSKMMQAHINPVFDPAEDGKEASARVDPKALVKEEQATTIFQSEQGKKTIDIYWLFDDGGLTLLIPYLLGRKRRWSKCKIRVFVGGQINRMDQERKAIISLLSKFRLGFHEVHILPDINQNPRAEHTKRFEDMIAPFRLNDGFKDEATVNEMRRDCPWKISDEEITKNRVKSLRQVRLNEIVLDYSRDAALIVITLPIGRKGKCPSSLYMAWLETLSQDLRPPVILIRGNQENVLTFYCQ
Experimental: (§1) HEK293S cell lines, cultured in 293 Freestyle medium (Life Technologies; plus 10% fetal bovine serum), stably expressing hNCC and its variants were generated following published protocols. Cells were transfected using Lipofectamine 3000 (Invitrogen) with a pSBbi-RP-based plasmid containing hNCC or its variants and the SB100X vector. Puromycin (2 μg/mL; Gemini Bio-Products) was used for selection of stable cell lines.
(§2) To prepare for the uptake experiment, cells were plated at 0.5 × 10^6 cells/well in 24-well plates one day in advance. To activate NCC, cells were treated with a chloride-free hypotonic solution composed of 67.5 mM sodium-, 2.5 mM potassium-, 0.25 mM magnesium-, and 0.25 mM calcium-gluconate, as well as 7.5 mM HEPES pH 7.4 (buffered using Tris) at 37 °C for 10 min[72]. After the activation step, the experiments were carried out at room temperature. Ten minutes before the start of ^125I^− uptake, 70 μM Bumetanide (Thermo Scientific Chemicals) and 100 μM 4,4′-diisothiocyanatostilbene-2,2′-disulfonic acid (DIDS; Sigma) were added to suppress background iodide uptake activity. Indicated thiazide diuretics were also added to the indicated concentrations 10 min before the start of ^125I^− uptake. […] Cells lysed using 1% sodium dodecyl sulfate (SDS) were analyzed by scintillation counting.

hNCC(T352I) = target: T2, hNCC(T352I) (Homo sapiens, UniProt P55017, T352I); experiment: 125I- uptake assay, hNCC(T352I) variant; assay type: cell-based; settings: 100 μM polythiazide
T2 construct: expressed in transfected cells
T2 sequence (P55017 1-1021 T352I): T1 sequence (P55017 1-1021 H234N) with N234H, T352I
Experimental: as §1, §2

Structure (SMILES) | serum glucose and uric acid [1] | inhibition of transport activity (hNCC(H234N)) | inhibition of transport activity (hNCC(T352I))
NS(=O)(=O)c1cc(C2(O)NC(=O)c3ccccc32)ccc1Cl (stereo not drawn) [chlorthalidone] | elevated levels of serum glucose and uric acid | – | –
CN1C(CSCC(F)(F)F)Nc2cc(Cl)c(S(N)(=O)=O)cc2S1(=O)=O (stereo not drawn) [polythiazide] | – | fully inhibited; also recorded: completely inhibited | fully inhibited; also recorded: completely inhibited
